In ChEMBL document CHEMBL1141033, “First-in-class pan caspase inhibitor developed for the treatment of liver disease” (J Med Chem, 2005) one finds k3/Ki, IC50 and ED50 data, which are given here for 14 molecules.

Assay [1] has as its target T1, Caspase-1 (Mus musculus) (UniProt P29452).
T1 sequence (whole entry): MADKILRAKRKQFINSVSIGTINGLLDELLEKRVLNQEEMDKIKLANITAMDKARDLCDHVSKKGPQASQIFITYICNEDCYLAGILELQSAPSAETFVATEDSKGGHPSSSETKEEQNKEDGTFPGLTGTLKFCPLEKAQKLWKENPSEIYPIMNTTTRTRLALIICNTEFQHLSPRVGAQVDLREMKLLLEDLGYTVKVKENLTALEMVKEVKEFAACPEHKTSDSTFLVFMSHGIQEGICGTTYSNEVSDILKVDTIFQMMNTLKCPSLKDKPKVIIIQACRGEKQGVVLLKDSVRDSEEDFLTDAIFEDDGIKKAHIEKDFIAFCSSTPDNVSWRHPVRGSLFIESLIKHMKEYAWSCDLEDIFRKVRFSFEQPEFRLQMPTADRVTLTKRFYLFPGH
Description: Inhibitory activity against murine Caspase-1.

For assay [2], the system named is Jurkat. The experiment in a line: Inhibitory concentration against JFas cells. The assay is classed as functional, cell-based. Particulars: Homo sapiens.
In assay [3] the test system is THP-1. The experiment in a line: Inhibitory concentration against THP-1 cells. As to conditions: Homo sapiens. In kind it is functional, cell-based.
Assay [4] has as its target T2, Caspase-3 (Homo sapiens) (UniProt P42574).
T2 sequence (whole entry): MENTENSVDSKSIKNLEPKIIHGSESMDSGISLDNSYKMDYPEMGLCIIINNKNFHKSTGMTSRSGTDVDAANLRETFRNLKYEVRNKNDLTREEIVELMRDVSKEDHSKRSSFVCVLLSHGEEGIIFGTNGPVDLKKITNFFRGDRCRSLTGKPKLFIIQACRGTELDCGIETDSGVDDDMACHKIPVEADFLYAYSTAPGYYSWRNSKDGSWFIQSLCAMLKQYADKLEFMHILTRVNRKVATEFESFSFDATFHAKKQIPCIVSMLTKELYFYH
The experiment in a line: Inhibitory activity against Caspase-3.

For assay [5], the target named is T3, Caspase-6 (Homo sapiens) (UniProt P55212).
T3 sequence (whole entry): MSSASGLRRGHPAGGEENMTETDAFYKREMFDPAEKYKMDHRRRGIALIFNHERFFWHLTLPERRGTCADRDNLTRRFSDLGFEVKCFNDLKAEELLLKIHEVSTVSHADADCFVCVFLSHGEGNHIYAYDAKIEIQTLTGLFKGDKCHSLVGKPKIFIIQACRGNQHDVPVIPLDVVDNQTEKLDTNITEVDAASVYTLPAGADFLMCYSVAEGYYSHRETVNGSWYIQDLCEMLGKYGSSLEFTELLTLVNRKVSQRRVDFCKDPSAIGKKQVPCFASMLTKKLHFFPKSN
Description: Inhibitory activity against Caspase-6.

Assay [6] deals with Caspase-8 (Homo sapiens) (UniProt Q14790). Description: Inhibitory activity against Caspase-8.
In assay [7] the test system is Mus musculus. The experiment in a line: Effective dose required for pancaspase inhibition in a-Fas liver upon i.p. administration. Particulars: ip.
Assay [8] has as its system Mus musculus. Description: Effective dose required for pancaspase inhibition in a-Fas liver upon i.p. administration; range = 0.06-0.12. Particulars: ip.
Assay [9] relates to Rattus norvegicus. Description: Effective dose required for pancaspase inhibition in a-Fas liver upon i.p. administration; range = 0.03-0.05. The assay is classed as functional. As to conditions: ip.
Assay [10] concerns Rattus norvegicus. The experiment in a line: Effective dose required for pancaspase inhibition in a-Fas liver after an i.p. administration. In kind it is functional. As to conditions: ip.
Assay [11] concerns Mus musculus. The experiment in a line: Effective dose required for pancaspase inhibition in a-Fas liver upon i.p. administration; range = 0.02-0.16. Particulars: ip.
Assay [12] deals with Mus musculus. The experiment in a line: Effective dose required for pancaspase inhibition in a-Fas liver upon i.p. administration; range = 0.02-0.11. Particulars: ip.

Sequence of Caspase-8 (Homo sapiens) (Q14790 217-374 limits assumed): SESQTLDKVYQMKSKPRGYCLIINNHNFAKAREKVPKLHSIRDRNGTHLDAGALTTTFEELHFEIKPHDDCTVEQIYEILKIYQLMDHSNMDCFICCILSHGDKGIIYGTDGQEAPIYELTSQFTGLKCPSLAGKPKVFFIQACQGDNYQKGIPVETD
Sequence of Caspase-8 (Homo sapiens) (Q14790 385-479 limits assumed): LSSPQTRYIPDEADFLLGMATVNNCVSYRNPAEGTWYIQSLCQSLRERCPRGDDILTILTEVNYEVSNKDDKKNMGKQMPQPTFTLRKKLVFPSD

In the case of `C[C@H](NC(=O)C(=O)Nc1ccccc1C(C)(C)C)C(=O)N[C@@H](CC(=O)O)C(=O)COP(=O)(c1ccccc1)c1ccccc1`, the k3/Ki in assay [1] was found to be 2.16e+06 M⁻¹ s⁻¹; in [4], 99100 M⁻¹ s⁻¹; in [5], 52100 M⁻¹ s⁻¹; in [6], 2.01e+06 M⁻¹ s⁻¹. For the same molecule, the concentration for half-maximal inhibition (IC50) is 81 nM in assay [2] and 9090 nM in assay [3]. In assay [7], the ED50 worked out at 0.14 mg/kg.
In the case of `C[C@H](NC(=O)C(=O)Nc1ccccc1C(C)(C)C)C(=O)N[C@@H](CC(=O)O)C(=O)COC(=O)c1c(Cl)cccc1Cl`, the k3/Ki in assay [1] was 8.33e+06 M⁻¹ s⁻¹; in assay [4], 236000 M⁻¹ s⁻¹; in [5], 105000 M⁻¹ s⁻¹; in assay [6], 4300 M⁻¹ s⁻¹. For the same molecule, the concentration for half-maximal inhibition (IC50) in assay [2] worked out at 143 nM; in assay [3], 11800 nM. In assay [7], the ED50 turned out to be 45.8 mg/kg.
Consider `C[C@H](NC(=O)C(=O)Nc1ccccc1C(C)(C)C)C(=O)N[C@@H](CC(=O)O)C(=O)COc1c(F)c(F)cc(F)c1F` [EMRICASAN], for which the k3/Ki in assay [1] amounted to 689000 M⁻¹ s⁻¹; in assay [4], 75700 M⁻¹ s⁻¹; in assay [5] it was 58700 M⁻¹ s⁻¹; in assay [6] it was 2.94e+06 M⁻¹ s⁻¹. Also, the 50% inhibitory concentration (IC50) in [2] turned out to be 25 nM; in assay [3] it was 270 nM. The molecule also returned a median effective dose (ED50) in assay [8] of 0.08 mg/kg.
Take `C[C@H](NC(=O)C(=O)Nc1cc(C(C)(C)C)ccc1C(C)(C)C)C(=O)N[C@@H](CC(=O)O)C(=O)COP(=O)(c1ccccc1)c1ccccc1`: the k3/Ki came to 2.71e+06 M⁻¹ s⁻¹ in assay [1], 18300 M⁻¹ s⁻¹ in assay [4], 7640 M⁻¹ s⁻¹ in assay [5] and 970000 M⁻¹ s⁻¹ in [6]. Further, the IC50 in assay [2] was 109 nM; in assay [3] it was 5870 nM. For the same molecule, in [7], it took a dose of 0.5 mg/kg to reach the 50% effect level (ED50).
Take `C[C@H](NC(=O)C(=O)Nc1ccccc1Cl)C(=O)N[C@@H](CC(=O)O)C(=O)COP(=O)(c1ccccc1)c1ccccc1`: the k3/Ki stood at 3.96e+06 M⁻¹ s⁻¹ in [1], 211000 M⁻¹ s⁻¹ in assay [4], 37100 M⁻¹ s⁻¹ in assay [5] and 1.41e+06 M⁻¹ s⁻¹ in assay [6]. Moreover, the half-inhibitory concentration (IC50) in assay [2] is 68 nM; in assay [3], 1040 nM. It took a dose of 0.04 mg/kg to reach the 50% effect level in [9] (ED50).
Consider `C[C@H](NC(=O)C(=O)Nc1ccccc1Br)C(=O)N[C@@H](CC(=O)O)C(=O)COc1c(F)c(F)cc(F)c1F`, for which the k3/Ki was 1.34e+06 M⁻¹ s⁻¹ in assay [1], 186000 M⁻¹ s⁻¹ in [4], 25200 M⁻¹ s⁻¹ in assay [5] and 542000 M⁻¹ s⁻¹ in [6]. Also, the figures for the IC50 in assay [2] and in assay [3] were 75 nM and 50 nM, respectively.
In the case of `C[C@H](NC(=O)C(=O)Nc1ccccc1Cl)C(=O)N[C@@H](CC(=O)O)C(=O)COC(=O)c1c(Cl)cccc1Cl`, the k3/Ki was determined as 8.31e+06 M⁻¹ s⁻¹ in assay [1], 256000 M⁻¹ s⁻¹ in assay [4], 44000 M⁻¹ s⁻¹ in [5] and 109 M⁻¹ s⁻¹ in [6]. The IC50 in assay [2] turned out to be 1170 nM; in [3] it was 320 nM.
As to `C[C@H](NC(=O)C(=O)Nc1ccccc1-c1ccccc1)C(=O)N[C@@H](CC(=O)O)C(=O)COP(=O)(c1ccccc1)c1ccccc1`, the k3/Ki is 5e+06 M⁻¹ s⁻¹ in assay [1], 28400 M⁻¹ s⁻¹ in assay [4], 22700 M⁻¹ s⁻¹ in assay [5] and 1.57e+06 M⁻¹ s⁻¹ in assay [6]. The IC50 in assay [2] was 3940 nM; in [3], 4120 nM. Further, the ED50 in assay [10] was 0.44 mg/kg.
Take `C[C@H](NC(=O)C(=O)Nc1ccc2c(c1)CCC2)C(=O)N[C@@H](CC(=O)O)C(=O)COc1c(F)c(F)cc(F)c1F`: the k3/Ki is 270000 M⁻¹ s⁻¹ in assay [1], 42000 M⁻¹ s⁻¹ in [4], 31900 M⁻¹ s⁻¹ in [5] and 204000 M⁻¹ s⁻¹ in assay [6]. The IC50 amounted to 200 nM in assay [2] and 120 nM in assay [3].
Take `O=C(O)CC(NC(=O)[C@@H]1Cc2cccc3c2N1C(=O)[C@@H](NC(=O)OCc1ccccc1)CC3)C(=O)CF` (some centres not stated): the k3/Ki in assay [1] is 1.2e+07 M⁻¹ s⁻¹; in [4], 960000 M⁻¹ s⁻¹; in assay [5] it was 25000 M⁻¹ s⁻¹; in [6] it was 98000 M⁻¹ s⁻¹. Also, the IC50 in assay [2] stood at 510 nM; in assay [3], 300 nM.
For the molecule `Cc1c(C(=O)N[C@H](C(=O)NC(CC(=O)O)C(=O)CF)C(C)C)n(C)c2ccccc12` (some centres not stated), the k3/Ki in assay [1] was determined as 10100 M⁻¹ s⁻¹; in assay [4], 19000 M⁻¹ s⁻¹; in assay [5] it was 98000 M⁻¹ s⁻¹; in [6], 34400 M⁻¹ s⁻¹. The IC50 in assay [2] came out at 1300 nM; in [3], 10000 nM.
Take `C[C@H](NC(=O)C(=O)Nc1ccccc1C(F)(F)F)C(=O)N[C@@H](CC(=O)O)C(=O)COc1c(F)c(F)cc(F)c1F`: the k3/Ki in assay [1] came out at 9.95e+06 M⁻¹ s⁻¹; in assay [4] it was 309000 M⁻¹ s⁻¹; in [5] it was 45600 M⁻¹ s⁻¹; in assay [6], 332000 M⁻¹ s⁻¹. In addition, the IC50 was determined as 61 nM in assay [2] and 190 nM in assay [3].
Turning to `C[C@H](NC(=O)C(=O)Nc1ccccc1Cl)C(=O)N[C@@H](CC(=O)O)C(=O)COc1c(F)c(F)cc(F)c1F`, the k3/Ki in assay [1] was found to be 1.34e+07 M⁻¹ s⁻¹; in assay [4], 219000 M⁻¹ s⁻¹; in [5], 26000 M⁻¹ s⁻¹; in assay [6], 228000 M⁻¹ s⁻¹. The IC50 in assay [2] was 64 nM; in [3], 540 nM. In [11], this molecule returned a 50% effective dose (ED50) of 0.05 mg/kg.
On to `C[C@H](NC(=O)C(=O)Nc1cc(C(C)(C)C)ccc1C(C)(C)C)C(=O)N[C@@H](CC(=O)O)C(=O)COc1c(F)c(F)cc(F)c1F`, for which the k3/Ki was found to be 1.63e+07 M⁻¹ s⁻¹ in [1], 38200 M⁻¹ s⁻¹ in [4], 15400 M⁻¹ s⁻¹ in assay [5] and 365000 M⁻¹ s⁻¹ in assay [6]. Moreover, the 50% inhibitory concentration (IC50) turned out to be 62 nM in assay [2] and 1840 nM in assay [3]. The molecule also had an ED50 in [12] of 0.05 mg/kg.
